From ChEMBL document CHEMBL3232901, “Design, synthesis, and pharmacological evaluation of fluorinated tetrahydrouridine derivatives as inhibitors of cytidine deaminase” (J Med Chem, 2014)

Legend:
[1] = Chemical stability in simulated gastric fluid assessed as compound remaining after 2 hrs at pH 1.2 at 37 degC; assay type: ADME, physicochemical, Stomach; conditions: read-out: Stability
[2] = Chemical stability in simulated gastric fluid assessed as compound remaining after 10 mins at pH 1.2 at 37 degC; assay type: ADME, physicochemical, Stomach; conditions: read-out: Stability

- remaining at 2 h [1]: 15%
- remaining at 10 min [2]: 50%
SMILES: O=C1NC(O)CCN1[C@@H]1O[C@H](CO)[C@@H](O)[C@H]1O (mixture of isomers) [TETRAHYDROURIDINE]
